Measured values as given in patent US7166597B2, “Fused pyrazole derivatives being protein kinase inhibitors” (Glaxo Group Limited, priority 2000, dated 2007).
Where two headings read alike, the source gives them in different places.

Columns and labels:
p38 kinase = molecular target: T1, p38 kinase (Homo sapiens, UniProt Q16539); assay: p38 Kinase Assay; format: biochemical
T1 construct: GST (N); made in house; host or cells: E. coli
Procedure: The peptide substrate used in the p38 assay was biotin-IPTSPITTTYFFFRRR-amide. The p38 and MEK6 proteins were purified to homogeneity from E. coli expression systems. The fusion proteins were tagged at the N-terminus with Glutathione-S-Transferase (GST). The maximum activation was achieved by incubating 20 uL of a reaction mixture of 30 nM MEK6 protein and 120 nM p38 protein in the presence of 1.5 uM peptide and 10 mM Mg (CH3CO2)2 in 100 mM HEPES7 pH 7.5, added to 15 uL of a mixture of 1.5 uM ATP with 0.08 uCi [g-^33P]ATP, with or without 15 uL of inhibitor in 6% DMSO. The controls were reactions in the presence (negative controls) or absence (positive controls) of 50 mM EDTA. Reactions were allowed to proceed for 60 min at room temperature and quenched with addition of 50 uL of 250 mM EDTA and mixed with 150 uL of Streptavidin SPA beads (Amersham) to 0.5 mg/reaction. The Dynatech Microfluor white U-bottom plates were sealed and the beads were allowed to settle overnight. The plates were counted in a Packard TopCount for 60 seconds. IC50 values were obtained by fitting raw data to % I=100*(1−(I−C2)/(C1−C2)), where I was […], C1 was positive control, and C2 was negative control.

[1] = system: TNF release from human peripheral blood mononuclear cells (PBMNC); assay: Cell Based Assay for Cytokines Production in PBMNC (TNF release after LPS); details: PBMC, read-out: TNF/PBMNC (inhibition of TNF release from human PBMNC following stimulation with LPS, IC50)
Procedure: Cell Based Assay for Cytokines Production in PBMNC
Human peripheral blood mononuclear cells were isolated from heparinized blood by LSM (Organon Teknika) from volunteer donors. Purified human peripheral blood mononuclear cells were then suspended at a concentration of 2×10^6 cells/ml in RPMI 1640 medium supplemented with 10% heat-inactivated FBS and 1% antibiotics. Aliquots of 100 μl (2×10^5 cells) were added to 96-well microliter plates. Test compounds at […] dose ranges (final-DMSO concentration in culture medium was 0.1%) were then added to the cells for 10–15 minutes before the addition of lipopolysaccharide (1 ng/ml). After incubation at 37° C. in a 5% CO2 incubator for 18–20 h, cell free supernatants were collected by centrifugation at 800 g. The supernatant was then assayed for the amount of TNFα and IL-1β by using Quantikine immunoassay kits developed by R&D Systems (Minneapolis, Minn.).

[2] = molecular target: T2, JNK3 kinase (Jnk-3alpha-2) (Homo sapiens, UniProt P53779); assay: JNK3 Kinase Assay; format: biochemical; details: Table 9; read-out: JNK3 IC50
T2 construct: Jnk-3alpha-2 (as a truncated construct, residues 39 to 224) was expressed in E. coli as a GST fusion protein; Following purification the GST portion was removed by thrombin cleavage; fused on or other part: An N-terminal GST tag was used for expression and removed by thrombin cleavage before the assay
T2 sequence (P53779 39-402 limits assumed): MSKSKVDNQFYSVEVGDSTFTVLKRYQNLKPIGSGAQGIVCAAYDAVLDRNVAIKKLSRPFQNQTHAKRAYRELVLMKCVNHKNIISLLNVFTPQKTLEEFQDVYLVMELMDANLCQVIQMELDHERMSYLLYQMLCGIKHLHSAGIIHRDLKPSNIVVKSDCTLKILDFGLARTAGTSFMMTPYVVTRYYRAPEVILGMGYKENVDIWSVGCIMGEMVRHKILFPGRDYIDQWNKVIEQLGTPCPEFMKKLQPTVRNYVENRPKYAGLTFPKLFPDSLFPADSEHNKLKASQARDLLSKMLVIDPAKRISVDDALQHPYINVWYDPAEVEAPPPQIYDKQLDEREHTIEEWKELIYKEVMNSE
Procedure: JNK3 Kinase Assay Jnk-3alpha-2 (as a truncated construct, residues 39 to 224) was expressed in E. coli as a GST fusion protein. Following purification the GST portion was removed by thrombin cleavage. The enzyme was stored at −80° C. Substrate c-Jun was expressed as a GST fusion protein including a signal peptide (biotinylation site) in E. coli. Following purification the substrate was biotinylated on a specific lysine in the signal peptide using biotin ligase. Prior to assay Jnk-3 was pre-activated by incubation with MgATP. The enzyme (10 nM) was screened in 40 mM HEPES (pH 7.4), 150 mM NaCl, 20 mM glycerophosphate, 1 mM DTT, 0.2 mM vanadate, 200 nM biotin-c-Jun, 5 mM MgCl2 and 10 uM ATP. Inhibitors were added over a conc range of from 0 to 10 uM in DMSO (fc 3%). The reaction was stopped by the addition of 25 mM EDTA. Phospho-c-Jun was detected using homogeneous time resolved fluorescence (HTRF) with a Eu-labelled antiphosphoserine (Serine 73) and streptavidin APC.

[3] = Table 9, p38 assays using Assay II, read-out: p38 IC50

T1 sequence (Q16539 whole entry): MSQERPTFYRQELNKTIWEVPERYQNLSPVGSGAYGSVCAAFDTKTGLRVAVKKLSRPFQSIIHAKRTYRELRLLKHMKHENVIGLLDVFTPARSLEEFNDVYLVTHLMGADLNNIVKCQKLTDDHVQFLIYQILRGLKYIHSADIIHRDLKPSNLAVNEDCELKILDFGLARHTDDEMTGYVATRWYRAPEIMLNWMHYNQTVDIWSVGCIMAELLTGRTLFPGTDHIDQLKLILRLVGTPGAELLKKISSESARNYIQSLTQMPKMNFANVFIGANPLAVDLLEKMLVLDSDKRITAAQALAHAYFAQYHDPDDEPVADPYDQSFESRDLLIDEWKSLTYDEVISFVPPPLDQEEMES

IC50 (p38 kinase; [3]) [nM] | IC50 [2] [nM] | Structure (SMILES) | other results
100 to 1000 | 1000 to 10000 | FC(F)(F)c1ccc2c(-c3ccnc(NCCN4CCCCC4)n3)c(-c3cccc(Cl)c3)nn2c1 [Example 110, N-{4-[2-(3-chlorophenyl)-6-(trifluoromethyl)pyrazolo[1,5-a]pyridin-3-yl]pyrimidin-2-yl}-N-(2-piperidin-1-ylethyl)amine] | 
1000 to 10000 | 1000 to 10000 | FC(F)(F)c1ccc(-c2nn3cc(C(F)(F)F)ccc3c2-c2ccnc(NCCCN3CCCCC3)n2)cc1 [Example 112, N-(3-piperidin-1-ylpropyl)-N-(4-{6-(trifluoromethyl)-2-[4-(trifluoromethyl)phenyl]pyrazolo[1,5-a]pyridin-3-yl}pyrimidin-2-yl)amine] | 
100 to 1000 | 100 to 1000 | Fc1ccc(-c2nn3cc(C(F)(F)F)ccc3c2-c2ccnc(NCCCN3CCCCC3)n2)cc1Cl [Example 113, N-{4-[2-(3-chloro-4-fluorophenyl)-6-(trifluoromethyl)pyrazolo[1,5-a]pyridin-3-yl]pyrimidin-2-yl}-N-(3-piperidin-1-ylpropyl)amine] | 
100 to 1000 | 1000 to 10000 | FC(F)(F)c1ccc2c(-c3ccnc(NCCN4CCCCCC4)n3)c(-c3cccc(Cl)c3)nn2c1 [Example 117, N-(2-azepan-1-ylethyl)-N-{4-[2-(3-chlorophenyl)-6-(trifluoromethyl)pyrazolo[1,5-a]pyridin-3-yl]pyrimidin-2-yl}amine] | 
10 to 100 | 100 to 1000 | FC(F)(F)c1ccc2c(-c3ccnc(NCCCN4CCOCC4)n3)c(-c3cccc(Cl)c3)nn2c1 [Example 123, N-{4-[2-(3-chlorophenyl)-6-(trifluoromethyl)pyrazolo[1,5-a]pyridin-3-yl]pyrimidin-2-yl}-N-(3-morpholin-4-ylpropyl)amine] | 
1000 to 10000 | 1000 to 10000 | CCCN1CCN(CCNc2nccc(-c3c(-c4ccc(C(F)(F)F)cc4)nn4cc(C(F)(F)F)ccc34)n2)CC1 [Example 127, N-[2-(4-propylpiperazin-1-yl)ethyl]-N-(4-{6-(trifluoromethyl)-2-[4-(trifluoromethyl)phenyl]pyrazolo[1,5-a]pyridin-3-yl}pyrimidin-2-yl)amine] | 

Further lines, the compound ahead of its results:

Structure (SMILES) | IC50 (p38 kinase; [3]) [nM] | IC50 [2] [nM] | other results
Fc1ccc(-c2nn3cc(C(F)(F)F)ccc3c2-c2ccncc2)cc1 [Example 23, 2-(4-Fluorophenyl)-3-(4-pyridinyl)-6-(trifluoromethyl)pyrazolo[1,5-a]pyridine] |  |  | IC50 (p38 kinase; Table 7, compounds wherein Z is CH, read-out: P38 kinase (inhibition of p38 kinase, IC50)): < 500 nM; IC50 ([1]; Table 7, LPS stimulation): < 500 nM
Fc1ccc(-c2nn3ccccc3c2-c2ccnc(NCCc3cnc[nH]3)n2)cc1 [Example 80, 4-[2-(4-Fluorophenyl)pyrazolo[1,5-a]pyridin-3-yl]-N-[2-(1H-imidazol-5-yl)ethyl]-2-pyrimidinamine] |  |  | IC50 (p38 kinase; Table 8, compounds wherein Z is N, read-out: p38 kinase (inhibition of p38 kinase, IC50)): < 500 nM; IC50 ([1]; Table 8, LPS stimulation): < 500 nM
Fc1ccc(-c2nn3cc(C(F)(F)F)ccc3c2-c2ccnc(NCCN3CCCC3)n2)cc1Cl [Example 104, N-{4-[2-(3-chloro-4-fluorophenyl)-6-(trifluoromethyl)pyrazolo-[1,5-a]pyridin-3-yl]pyrimidin-2-yl}-N-(2-pyrrolidin-1-ylethyl)amine] | 100 to 1000 | 1000 to 10000 | 
FC(F)(F)c1ccc2c(-c3ccnc(NCCN4CCCC4)n3)c(-c3cccc(Cl)c3)nn2c1 [Example 105, N-{4-[2-(3-chlorophenyl)-6-(trifluoromethyl)pyrazolo[1,5-a]pyridin-3-yl]pyrimidin-2-yl}-N-(2-pyrrolidin-1-ylethyl)amine] | 100 to 1000 | 1000 to 10000 | 
FC(F)(F)c1ccc2c(-c3ccnc(NCCCCN4CCCC4)n3)c(-c3cccc(Cl)c3)nn2c1 [Example 106, N-{4-[2-(3-chlorophenyl)-6-(trifluoromethyl)pyrazolo[1,5-a]pyridin-3-yl]pyrimidin-2-yl}-N-(4-pyrrolidin-1-ylbutyl)amine] | 10 to 100 | 100 to 1000 | 
Fc1ccc(-c2nn3cc(C(F)(F)F)ccc3c2-c2ccnc(NCCN3CCCCC3)n2)cc1Cl [Example 109, N-{4-[2-(3-chloro-4-fluorophenyl)-6-(trifluoromethyl)pyrazolo[1,5-a]pyridin-3-yl]pyrimidin-2-yl}-N-(2-piperidin-1-ylethyl)amine] | 100 to 1000 | 1000 to 10000 | 
Fc1ccc(-c2nn3cc(C(F)(F)F)ccc3c2-c2ccnc(NCCN3CCCCCC3)n2)cc1Cl [Example 116, N-(2-azepan-1-ylethyl)-N-{4-[2-(3-chloro-4-fluorophenyl)-6-(trifluoromethyl)pyrazolo[1,5-a]pyridin-3-yl]pyrimidin-2-yl}amine] | 100 to 1000 | 1000 to 10000 | 
Fc1ccc(-c2nn3cc(C(F)(F)F)ccc3c2-c2ccnc(NCCN3CCOCC3)n2)cc1Cl [Example 120, N-{4-[2-(3-chloro-4-fluorophenyl)-6-(trifluoromethyl)pyrazolo[1,5-a]pyridin-3-yl]pyrimidin-2-yl}-N-(2-morpholin-4-ylethyl)amine] | 10 to 100 | 100 to 1000 | 
Fc1ccc(-c2nn3cc(C(F)(F)F)ccc3c2-c2ccnc(NCCCN3CCOCC3)n2)cc1Cl [Example 122, N-{4-[2-(3-chloro-4-fluorophenyl)-6-(trifluoromethyl)pyrazolo[1,5-a]pyridin-3-yl]pyrimidin-2-yl}-N-(3-morpholin-4-ylpropyl)amine] | 100 to 1000 | 100 to 1000 | 
CN1CCN(CCCNc2nccc(-c3c(-c4ccc(F)cc4)nn4cc(C(F)(F)F)ccc34)n2)CC1 [Example 124, N-{4-[2-(4-fluorophenyl)-6-(trifluoromethyl)pyrazolo[1,5-a]pyridin-3-yl]pyrimidin-2-yl}-N-[3-(4-methylpiperazin-1-yl)propyl]amine] | 10 to 100 | 100 to 1000 | 
CN1CCN(CCCNc2nccc(-c3c(-c4ccc(F)c(Cl)c4)nn4cc(C(F)(F)F)ccc34)n2)CC1 [Example 125, N-{4-[2-(3-chloro-4-fluorophenyl)-6-(trifluoromethyl)pyrazolo-[1,5-a]pyridin-3-yl]pyrimidin-2-yl}-N-[3-(4-methylpiperazin-1-yl)propyl]amine] | 10 to 100 | 100 to 1000 | 
CCCN1CCN(CCNc2nccc(-c3c(-c4ccc(F)c(Cl)c4)nn4cc(C(F)(F)F)ccc34)n2)CC1 [Example 128, N-{4-[2-(3-chloro-4-fluorophenyl)-6-(trifluoromethyl)pyrazolo-[1,5-a]pyridin-3-yl]pyrimidin-2-yl}-N-[2-(4-propylpiperazin-1-yl)ethyl]amine] | 10 to 100 | 100 to 1000 | 
CCCN1CCN(CCNc2nccc(-c3c(-c4cccc(Cl)c4)nn4cc(C(F)(F)F)ccc34)n2)CC1 [Example 129, N-{4-[2-(3-chlorophenyl)-6-(trifluoromethyl)pyrazolo[1,5-a]pyridin-3-yl]pyrimidin-2-yl}-N-[2-(4-propylpiperazin-1-yl)ethyl]amine] | 10 to 100 | 100 to 1000 | 
